Reference: patent publication US12435091B2, “RNA-binding protein multimerization inhibitors and methods of use thereof” (THE UAB RESEARCH FOUNDATION, priority 2020, dated 2025)
Where “and” joins values, the source holds several entries; their conditions need not be identical. Equal entries are not always repeated. Where two headings read alike, the source gives them in different places.

Assays:
[1] = test system: inflammatory cytokines, chemokines and other mediators in primary microglial cells; experiment: qPCR of inflammatory mediator mRNAs in LPS-activated primary microglia; type: cell-based, mouse; settings: 24 hours
Description: Cultured primary microglial cells isolated from neonatal mouse brain were treated with LPS to achieve activation. Cells were then treated with varying doses of SRI-42127 or vehicle for 24 hours. Total RNA was harvested from the cells and various mRNAs were quantified by qPCR as depicted in FIG. 12. Consistent with microglial activation, there were large inductions of inflammatory cytokines, chemokines and other mediators including IL-1β, IL-6, TNF-α, iNOS, IL-10, CXCL1, CXCL2, CXCL10, CCL2, CCL3, and CCL4. These inductions were as high as ˜3500-fold for IL-6.
Major chemokines CXCL1, CXCL2 and CCL3 were suppressed by more than 2-fold. There was a mixed effect on markers of M2-like markers, with TGF-β1 and YM1 increasing and IL-10 decreasing. As these inflammatory factors were secreted, they were quantified by ELISA in culture medium. The greatest effect was with IL-6 which was suppressed at a lower dose of SRI-42127 (1.7-fold at 0.1 μM) and nearly 10-fold at 1.0 μM. IL-1β and TNF-α were suppressed by 5-fold at 1.0 μM.

[2] = in vivo pharmacokinetic study in mice by ip administration; design: species or system C57Bl/6 mice; settings: for concentration at 0.167 h / concentration at 0.5 h / Kp at 0.167 h / Kp at 0.5 h / Kp at 1 h / AUC(0-inf) / AUC(0-t) / Cmax / Tmax / MRT inf / half-life / Brain concentration / Plasma concentration / Ratio (Brain/Plasma) / AUCExtrap—obs: mouse; for concentration at 0.167 h / concentration at 0.5 h / Kp at 0.167 h / Kp at 0.5 h / Kp at 1 h / Brain concentration / Plasma concentration / Ratio (Brain/Plasma): 10 mg/kg IP; for AUC(0-inf) / AUC(0-t) / Cmax / Tmax / MRT inf / half-life: C57Bl/6; for MRT inf: read-out: MRTInf_obs
Description: The in vivo PK study for SRI-42127 was performed by Pharmaron (Beijing, China); pharmacokinetics were evaluated in the C57Bl/6 mice. […]

[3] = test system: Bcl2 and Mcl1 mRNAs in PDGx XD456 cell line; experiment: Taqman quantification of Bcl2/18S and Mcl1/18S mRNA; type: cell-based; settings: XD456, 10 uM for 24 hours
Description: (§1) The HuR-mRNA co-immunoprecipitation (IP) was performed by utilizing RiboCluster Profiler RIP-assay Kit (MBL International). The quantifications of Bcl2, and 18S transcripts were performed using Taqman technique with the following gene-specific probes: Hs00153350_m1, Hs03003631_g1, and Hs00766187_m1 (ThermoFisher Scientific) for Bcl2, 18S, and Mcl1, respectively.
(§2) mRNA isolation and purification from adherent cells were performed using RNeasy Mini Kit and QIAshredder columns (Qiagen, Valencia, CA).
(§3) HuR protein plays a significant role in the stabilization of the mRNAs of the anti-apoptotic Bcl2-family, which contributes to the protection of genetically unstable glioma cells from apoptosis. Therefore, the Bcl2 family was evaluated in the established and PDGx cell lines after cell treatment with SRI-41664 or SRI-42127 compounds. […] The protein levels of Bcl2 and Mcl1 were evaluated in the established U251 and PDGx XD456 glioma cell lines in the control (vehicle treatment) and after treatment with SRI-41664 or SRI-42127 compounds for 48 hours.

[4] = test system: Bcl2 and Mcl1 mRNAs in U251 cell line; experiment: as above; type: cell-based; settings: U251, 10 uM for 24 hours
Description: as §1, §2, §3

[5] = test system: Bcl2 and Mcl1 mRNAs in LN229 cell line; experiment: as above; type: cell-based; settings: LN229, 10 uM for 24 hours
Description: as §1, §2, §3

[6] = test system: Bcl2 and Mcl1 mRNAs in U87 cell line; experiment: as above; type: cell-based; settings: U87, 10 uM for 24 hours
Description: as §1, §2, §3

[7] = test system: U251 cells expressing Fluc construct; experiment: control Fluc (full length luciferase) reporter assay in U251 cells; type: cell-based
Summary of the method: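 U251 cells carrying HuR fused to N- or C-terminal split firefly luciferase halves (dimer reporter) or full-length Fluc (control); constructs induced with doxycycline 0.75 ug/ml for 48 h. Compounds at various concentrations vs vehicle for 6 h. Luciferin-driven luminescence read; mean+SD.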

in vitro = settings: human, liver microsomes
Description: Selected compounds were assessed for their aqueous solubility, Log D and mouse and human liver microsomal stability.

[8] = 0.167 h, individual animals, 10 mg/kg
[9] = 0.5 h, individual animals, 10 mg/kg
[10] = 1 h, individual animals, 10 mg/kg

For `CN(c1ccc2ncc(-c3ccc4cn[nH]c4c3)n2n1)C1CCOCC1` [Compound 19], the “suppression of CCL3 mRNA” value [1] was “more than 2 fold”, the “suppression of CXCL1 mRNA” value [1] was “more than 2 fold” and the “suppression of CXCL2 mRNA” value [1] was “more than 2 fold”. The “suppression of IL-1β mRNA” value [1] was 5.9 fold, the “suppression of IL-6 mRNA” value [1] was 6.8 fold and the “suppression of TNF-α mRNA” value [1] was 1.6 fold. For the same molecule, the “suppression of iNOS mRNA” value [1] was 8 fold, the concentration at 0.167 h ([2]; C57Bl/6, mouse, brain, ip, 10 mg/kg, 0.167 h, individual animals, read-out: Brain concentration) was 1220 ng/g and the concentration at 0.5 h ([2]; C57Bl/6, mouse, brain, ip, 10 mg/kg, 0.5 h, individual animals, read-out: Brain concentration) was 420 ng/g. For the same molecule, the Kp ([2]; C57Bl/6, mouse, brain/plasma, ip, 10 mg/kg, mice, ip administration, all time points, read-out: brain/plasma concentration ratio) was roughly 0.4, the Kp at 0.167 h ([2]; C57Bl/6, mouse, brain/plasma, ip, 10 mg/kg, 0.167 h, individual animals, read-out: Ratio (Brain/Plasma)) was 0.419 and the Kp at 0.167 h ([2]; C57Bl/6, mouse, brain/plasma, ip, 10 mg/kg, 0.167 h, read-out: Ratio (Brain/Plasma) Mean) was 0.399. For the same molecule, the Kp at 0.5 h ([2]; C57Bl/6, mouse, brain/plasma, ip, 10 mg/kg, 0.5 h, individual animals, read-out: Ratio (Brain/Plasma)) was 0.536, the Kp at 0.5 h ([2]; C57Bl/6, mouse, brain/plasma, ip, 10 mg/kg, 0.5 h, read-out: Ratio (Brain/Plasma) Mean) was 0.455 and the Kp at 1 h ([2]; C57Bl/6, mouse, brain/plasma, ip, 10 mg/kg, 1 h, individual animals, read-out: Ratio (Brain/Plasma)) was 0.408. The Kp at 1 h ([2]; C57Bl/6, mouse, brain/plasma, ip, 10 mg/kg, 1 h, read-out: Ratio (Brain/Plasma) Mean) was 0.398, the concentration at 0.167 h ([2]; C57Bl/6, mouse, plasma, ip, 10 mg/kg, 0.167 h, individual animals, read-out: Plasma concentration) was 2910 ng/mL and the concentration at 0.5 h ([2]; C57Bl/6, mouse, plasma, ip, 10 mg/kg, 0.5 h, individual animals, read-out: Plasma concentration) was 782 ng/mL. It also gave an AUC(0-inf) ([2]; 10 mg/kg ip, Brain) of 550 ng·h/mL, an AUC(0-t) ([2]; 10 mg/kg ip, Brain) of 541 ng·h/mL and a Cmax ([2]; 10 mg/kg ip, Brain) of 1370 ng/mL. It also gave a Tmax ([2]; 10 mg/kg ip, Brain) of 10 min, an MRT inf ([2]; 10 mg/kg ip, Brain) of 18.8 min and a half-life ([2]; 10 mg/kg ip, Brain, read-out: T½ (converted)) of 9.6 min. It also gave an AUC(0-inf) ([2]; 10 mg/kg ip, Plasma) of 1340 ng·h/mL, an AUC(0-t) ([2]; 10 mg/kg ip, Plasma) of 1320 ng·h/mL and a Cmax ([2]; 10 mg/kg ip, Plasma) of 3460 ng/mL. For the same molecule, the Tmax ([2]; 10 mg/kg ip, Plasma) was 10 min, the MRT inf ([2]; 10 mg/kg ip, Plasma) was 18.4 min and the half-life ([2]; 10 mg/kg ip, Plasma, read-out: T½ (converted)) was 9.6 min. The half-life ([2]; dose of 10 mg/kg by IP, read-out: half-life (converted)) was 9.6 min, the brain/plasma concentration ratio ([2]; mice, ip administration, all time points, listed as SRI-42127) was 0.42±0.05 and the Brain concentration [2, 8] was 1375 ng/g and 1520 ng/g. For the same molecule, the Plasma concentration [2, 8] was 3450 ng/mL and 4010 ng/mL, the “Ratio (Brain/Plasma)” value [2, 8] was 0.379 and the Brain concentration [2, 9] was 545 ng/g and 391 ng/g. For the same molecule, the Plasma concentration [2, 9] was 1430 ng/mL and 870 ng/mL, the “Ratio (Brain/Plasma)” value [2, 9] was 0.381 and 0.449 and the Brain concentration [2, 10] was 53.0 ng/g and 43.9 ng/g and 19.7 ng/g. For the same molecule, the Plasma concentration [2, 10] was 130 ng/mL and 104 ng/mL and 53.9 ng/mL, the “Ratio (Brain/Plasma)” value [2, 10] was 0.422 and 0.365 and the “AUCExtrap—obs” value ([2]; 10 mg/kg ip, Brain) was 1.63%. The “AUCExtrap—obs” value ([2]; 10 mg/kg ip, Plasma) was 1.65%, the “decrease of Bcl2/18S mRNA ratio” value [3] was 96±2% and the “decrease of Mcl1/18S mRNA ratio” value [3] was 90±9%. The “decrease of Bcl2/18S mRNA ratio” value [4] was 96±2%, the “decrease of Mcl1/18S mRNA ratio” value [4] was 95±3% and the “decrease of Bcl2/18S mRNA ratio” value [5] was 95±2%. For the same molecule, the “decrease of Mcl1/18S mRNA ratio” value [5] was 87±8%, the “decrease of Bcl2/18S mRNA ratio” value [6] was 95±2% and the “decrease of Mcl1/18S mRNA ratio” value [6] was 86±7%. The “decrease of luminescence signal from cells overexpressing the control Fluc construct” value ([7]; 6 hours, represents the cytotoxic effect) was 26±9%, the inhibition at 50 µM ([7]; Homo sapiens, U-251, 6 h, Concn 50 uM, read-out: Fluc Imax % Inh) was 26% and the half-life (in vitro) was 8.6 min.
